# From ChEMBL document CHEMBL5724914, “Linking interpersonal differences in gut microbiota composition and drug biotransformation activity” (2024)
# Assay: (§1) The drug is tested on Z-016 corresponding to mouse gut metagenome with ENA study accession number: PRJEB37062 and ENA sample accession number: ERS12561815 for biotransformation under anaerobic condition. The drug concentrations were measured over 9 timepoints collected between 0 and 24 hours of incubation by liquid-chromatography-coupled mass spectrometry (LC–MS)
# Conditions: 2 µM
# Further: call rule not given here.
row,SMILES,Bacterial Biotransformation
1,COC(=O)C(c1ccccc1)C1CCCCN1 (stereo not given) [METHYLPHENIDATE],Compound NOT metabolized
2,CN1CCN2c3ccccc3Cc3ccccc3C2C1 (stereo not given) [MIANSERIN],Compound NOT metabolized
3,CC#C[C@]1(O)CC[C@H]2[C@@H]3CCC4=CC(=O)CCC4=C3[C@@H](c3ccc(N(C)C)cc3)C[C@@]21C [MIFEPRISTONE],Compound metabolized
4,CC(C)(C)NCC(O)COc1cccc2c1CC(O)C(O)C2 (stereo not given) [NADOLOL],Compound NOT metabolized

# Assay: as §1, with “Z-027” for “Z-016”, “to” for “to mouse gut”, “ERS12561826” for “ERS12561815”
# Conditions: 2 µM
row,SMILES,Bacterial Biotransformation
1,COC(=O)C(c1ccccc1)C1CCCCN1 (stereo not given) [METHYLPHENIDATE],Compound NOT metabolized
2,CN1CCN2c3ccccc3Cc3ccccc3C2C1 (stereo not given) [MIANSERIN],Compound NOT metabolized
3,CC#C[C@]1(O)CC[C@H]2[C@@H]3CCC4=CC(=O)CCC4=C3[C@@H](c3ccc(N(C)C)cc3)C[C@@]21C [MIFEPRISTONE],Compound NOT metabolized
4,CC(C)(C)NCC(O)COc1cccc2c1CC(O)C(O)C2 (stereo not given) [NADOLOL],Compound NOT metabolized

# Assay: as §1, with “Z-011” for “Z-016”, “ERS12561811” for “ERS12561815”
# Conditions: 2 µM
row,SMILES,Bacterial Biotransformation
1,COC(=O)C(c1ccccc1)C1CCCCN1 (stereo not given) [METHYLPHENIDATE],Compound NOT metabolized
2,CN1CCN2c3ccccc3Cc3ccccc3C2C1 (stereo not given) [MIANSERIN],Compound metabolized
3,CC#C[C@]1(O)CC[C@H]2[C@@H]3CCC4=CC(=O)CCC4=C3[C@@H](c3ccc(N(C)C)cc3)C[C@@]21C [MIFEPRISTONE],Compound metabolized
4,CC(C)(C)NCC(O)COc1cccc2c1CC(O)C(O)C2 (stereo not given) [NADOLOL],Compound metabolized

# Assay: as §1, with “Z-024” for “Z-016”, “pig” for “mouse”, “ERS12561823” for “ERS12561815”
# Conditions: 2 µM
row,SMILES,Bacterial Biotransformation
1,COC(=O)C(c1ccccc1)C1CCCCN1 (stereo not given) [METHYLPHENIDATE],Compound metabolized
2,CN1CCN2c3ccccc3Cc3ccccc3C2C1 (stereo not given) [MIANSERIN],Compound metabolized
3,CC#C[C@]1(O)CC[C@H]2[C@@H]3CCC4=CC(=O)CCC4=C3[C@@H](c3ccc(N(C)C)cc3)C[C@@]21C [MIFEPRISTONE],Compound metabolized
4,CC(C)(C)NCC(O)COc1cccc2c1CC(O)C(O)C2 (stereo not given) [NADOLOL],Compound NOT metabolized

# Conditions: human gut metagenome, 24 h, 2 µM
row,SMILES,Bacterial Biotransformation
1,COC(=O)C(c1ccccc1)C1CCCCN1 (stereo not given) [METHYLPHENIDATE],Compound NOT metabolized
2,CN1CCN2c3ccccc3Cc3ccccc3C2C1 (stereo not given) [MIANSERIN],Compound NOT metabolized
3,CC#C[C@]1(O)CC[C@H]2[C@@H]3CCC4=CC(=O)CCC4=C3[C@@H](c3ccc(N(C)C)cc3)C[C@@]21C [MIFEPRISTONE],Compound NOT metabolized
4,CC(C)(C)NCC(O)COc1cccc2c1CC(O)C(O)C2 (stereo not given) [NADOLOL],Compound NOT metabolized

# Conditions: human gut metagenome, 24 h, 2 µM
# Remark: another data set of the same source
row,SMILES,Bacterial Biotransformation
1,COC(=O)C(c1ccccc1)C1CCCCN1 (stereo not given) [METHYLPHENIDATE],Compound metabolized
2,CN1CCN2c3ccccc3Cc3ccccc3C2C1 (stereo not given) [MIANSERIN],Compound metabolized
3,CC#C[C@]1(O)CC[C@H]2[C@@H]3CCC4=CC(=O)CCC4=C3[C@@H](c3ccc(N(C)C)cc3)C[C@@]21C [MIFEPRISTONE],Compound metabolized
4,CC(C)(C)NCC(O)COc1cccc2c1CC(O)C(O)C2 (stereo not given) [NADOLOL],Compound metabolized

# Conditions: human gut metagenome, 24 h, 2 µM
# Remark: another data set of the same source
row,SMILES,Bacterial Biotransformation
1,COC(=O)C(c1ccccc1)C1CCCCN1 (stereo not given) [METHYLPHENIDATE],Compound NOT metabolized
2,CN1CCN2c3ccccc3Cc3ccccc3C2C1 (stereo not given) [MIANSERIN],Compound metabolized
3,CC#C[C@]1(O)CC[C@H]2[C@@H]3CCC4=CC(=O)CCC4=C3[C@@H](c3ccc(N(C)C)cc3)C[C@@]21C [MIFEPRISTONE],Compound NOT metabolized
4,CC(C)(C)NCC(O)COc1cccc2c1CC(O)C(O)C2 (stereo not given) [NADOLOL],Compound NOT metabolized

# Assay: as §1, with “WLS-240” for “Z-016”, “human” for “mouse”, “ERS12561773” for “ERS12561815”
# Conditions: 2 µM
row,SMILES,Bacterial Biotransformation
1,COC(=O)C(c1ccccc1)C1CCCCN1 (stereo not given) [METHYLPHENIDATE],Compound metabolized
2,CN1CCN2c3ccccc3Cc3ccccc3C2C1 (stereo not given) [MIANSERIN],Compound NOT metabolized
3,CC#C[C@]1(O)CC[C@H]2[C@@H]3CCC4=CC(=O)CCC4=C3[C@@H](c3ccc(N(C)C)cc3)C[C@@]21C [MIFEPRISTONE],Compound metabolized
4,CC(C)(C)NCC(O)COc1cccc2c1CC(O)C(O)C2 (stereo not given) [NADOLOL],Compound metabolized

# Conditions: human gut metagenome, 24 h, 2 µM
# Remark: another data set of the same source
row,SMILES,Bacterial Biotransformation
1,COC(=O)C(c1ccccc1)C1CCCCN1 (stereo not given) [METHYLPHENIDATE],Compound NOT metabolized
2,CN1CCN2c3ccccc3Cc3ccccc3C2C1 (stereo not given) [MIANSERIN],Compound NOT metabolized
3,CC#C[C@]1(O)CC[C@H]2[C@@H]3CCC4=CC(=O)CCC4=C3[C@@H](c3ccc(N(C)C)cc3)C[C@@]21C [MIFEPRISTONE],Compound NOT metabolized
4,CC(C)(C)NCC(O)COc1cccc2c1CC(O)C(O)C2 (stereo not given) [NADOLOL],Compound NOT metabolized

# Conditions: human gut metagenome, 24 h, 2 µM
# Remark: another data set of the same source
row,SMILES,Bacterial Biotransformation
1,COC(=O)C(c1ccccc1)C1CCCCN1 (stereo not given) [METHYLPHENIDATE],Compound NOT metabolized
2,CN1CCN2c3ccccc3Cc3ccccc3C2C1 (stereo not given) [MIANSERIN],Compound NOT metabolized
3,CC#C[C@]1(O)CC[C@H]2[C@@H]3CCC4=CC(=O)CCC4=C3[C@@H](c3ccc(N(C)C)cc3)C[C@@]21C [MIFEPRISTONE],Compound NOT metabolized
4,CC(C)(C)NCC(O)COc1cccc2c1CC(O)C(O)C2 (stereo not given) [NADOLOL],Compound NOT metabolized

# Conditions: human gut metagenome, 24 h, 2 µM
# Remark: another data set of the same source
row,SMILES,Bacterial Biotransformation
1,COC(=O)C(c1ccccc1)C1CCCCN1 (stereo not given) [METHYLPHENIDATE],Compound metabolized
2,CN1CCN2c3ccccc3Cc3ccccc3C2C1 (stereo not given) [MIANSERIN],Compound metabolized
3,CC#C[C@]1(O)CC[C@H]2[C@@H]3CCC4=CC(=O)CCC4=C3[C@@H](c3ccc(N(C)C)cc3)C[C@@]21C [MIFEPRISTONE],Compound metabolized
4,CC(C)(C)NCC(O)COc1cccc2c1CC(O)C(O)C2 (stereo not given) [NADOLOL],Compound NOT metabolized

# Assay: as §1, with “WLS-098” for “Z-016”, “human” for “mouse”, “ERS12561754” for “ERS12561815”
# Conditions: 2 µM
row,SMILES,Bacterial Biotransformation
1,COC(=O)C(c1ccccc1)C1CCCCN1 (stereo not given) [METHYLPHENIDATE],Compound NOT metabolized
2,CN1CCN2c3ccccc3Cc3ccccc3C2C1 (stereo not given) [MIANSERIN],Compound metabolized
3,CC#C[C@]1(O)CC[C@H]2[C@@H]3CCC4=CC(=O)CCC4=C3[C@@H](c3ccc(N(C)C)cc3)C[C@@]21C [MIFEPRISTONE],Compound NOT metabolized
4,CC(C)(C)NCC(O)COc1cccc2c1CC(O)C(O)C2 (stereo not given) [NADOLOL],Compound metabolized

# Assay: as §1, with “WLS-038” for “Z-016”, “human” for “mouse”, “ERS12561745” for “ERS12561815”
# Conditions: 2 µM
row,SMILES,Bacterial Biotransformation
1,COC(=O)C(c1ccccc1)C1CCCCN1 (stereo not given) [METHYLPHENIDATE],Compound NOT metabolized
2,CN1CCN2c3ccccc3Cc3ccccc3C2C1 (stereo not given) [MIANSERIN],Compound NOT metabolized
3,CC#C[C@]1(O)CC[C@H]2[C@@H]3CCC4=CC(=O)CCC4=C3[C@@H](c3ccc(N(C)C)cc3)C[C@@]21C [MIFEPRISTONE],Compound metabolized
4,CC(C)(C)NCC(O)COc1cccc2c1CC(O)C(O)C2 (stereo not given) [NADOLOL],Compound NOT metabolized

# Assay: as §1, with “WLS-069” for “Z-016”, “human” for “mouse”, “ERS12561748” for “ERS12561815”
# Conditions: 2 µM
row,SMILES,Bacterial Biotransformation
1,COC(=O)C(c1ccccc1)C1CCCCN1 (stereo not given) [METHYLPHENIDATE],Compound NOT metabolized
2,CN1CCN2c3ccccc3Cc3ccccc3C2C1 (stereo not given) [MIANSERIN],Compound metabolized
3,CC#C[C@]1(O)CC[C@H]2[C@@H]3CCC4=CC(=O)CCC4=C3[C@@H](c3ccc(N(C)C)cc3)C[C@@]21C [MIFEPRISTONE],Compound metabolized
4,CC(C)(C)NCC(O)COc1cccc2c1CC(O)C(O)C2 (stereo not given) [NADOLOL],Compound metabolized

# Conditions: human gut metagenome, 24 h, 2 µM
# Remark: another data set of the same source
row,SMILES,Bacterial Biotransformation
1,COC(=O)C(c1ccccc1)C1CCCCN1 (stereo not given) [METHYLPHENIDATE],Compound NOT metabolized
2,CN1CCN2c3ccccc3Cc3ccccc3C2C1 (stereo not given) [MIANSERIN],Compound NOT metabolized
3,CC#C[C@]1(O)CC[C@H]2[C@@H]3CCC4=CC(=O)CCC4=C3[C@@H](c3ccc(N(C)C)cc3)C[C@@]21C [MIFEPRISTONE],Compound NOT metabolized
4,CC(C)(C)NCC(O)COc1cccc2c1CC(O)C(O)C2 (stereo not given) [NADOLOL],Compound NOT metabolized

# Assay: as §1, with “Z-029” for “Z-016”, “rat” for “mouse”, “ERS12561828” for “ERS12561815”
# Conditions: 2 µM
row,SMILES,Bacterial Biotransformation
1,COC(=O)C(c1ccccc1)C1CCCCN1 (stereo not given) [METHYLPHENIDATE],Compound NOT metabolized
2,CN1CCN2c3ccccc3Cc3ccccc3C2C1 (stereo not given) [MIANSERIN],Compound NOT metabolized
3,CC#C[C@]1(O)CC[C@H]2[C@@H]3CCC4=CC(=O)CCC4=C3[C@@H](c3ccc(N(C)C)cc3)C[C@@]21C [MIFEPRISTONE],Compound NOT metabolized
4,CC(C)(C)NCC(O)COc1cccc2c1CC(O)C(O)C2 (stereo not given) [NADOLOL],Compound NOT metabolized

# Conditions: human gut metagenome, 24 h, 2 µM
# Remark: another data set of the same source
row,SMILES,Bacterial Biotransformation
1,COC(=O)C(c1ccccc1)C1CCCCN1 (stereo not given) [METHYLPHENIDATE],Compound NOT metabolized
2,CN1CCN2c3ccccc3Cc3ccccc3C2C1 (stereo not given) [MIANSERIN],Compound NOT metabolized
3,CC#C[C@]1(O)CC[C@H]2[C@@H]3CCC4=CC(=O)CCC4=C3[C@@H](c3ccc(N(C)C)cc3)C[C@@]21C [MIFEPRISTONE],Compound metabolized
4,CC(C)(C)NCC(O)COc1cccc2c1CC(O)C(O)C2 (stereo not given) [NADOLOL],Compound metabolized

# Assay: as §1, with “Z-012” for “Z-016”, “to” for “to mouse gut”, “ERS12561812” for “ERS12561815”
# Conditions: 2 µM
row,SMILES,Bacterial Biotransformation
1,COC(=O)C(c1ccccc1)C1CCCCN1 (stereo not given) [METHYLPHENIDATE],Compound NOT metabolized
2,CN1CCN2c3ccccc3Cc3ccccc3C2C1 (stereo not given) [MIANSERIN],Compound NOT metabolized
3,CC#C[C@]1(O)CC[C@H]2[C@@H]3CCC4=CC(=O)CCC4=C3[C@@H](c3ccc(N(C)C)cc3)C[C@@]21C [MIFEPRISTONE],Compound NOT metabolized
4,CC(C)(C)NCC(O)COc1cccc2c1CC(O)C(O)C2 (stereo not given) [NADOLOL],Compound NOT metabolized

# Assay: as §1, with “Z-002” for “Z-016”, “rabbit” for “mouse”, “ERS12561802” for “ERS12561815”
# Conditions: 2 µM
row,SMILES,Bacterial Biotransformation
1,COC(=O)C(c1ccccc1)C1CCCCN1 (stereo not given) [METHYLPHENIDATE],Compound metabolized
2,CN1CCN2c3ccccc3Cc3ccccc3C2C1 (stereo not given) [MIANSERIN],Compound metabolized
3,CC#C[C@]1(O)CC[C@H]2[C@@H]3CCC4=CC(=O)CCC4=C3[C@@H](c3ccc(N(C)C)cc3)C[C@@]21C [MIFEPRISTONE],Compound metabolized
4,CC(C)(C)NCC(O)COc1cccc2c1CC(O)C(O)C2 (stereo not given) [NADOLOL],Compound metabolized

# Conditions: human gut metagenome, 24 h, 2 µM
# Remark: another data set of the same source
row,SMILES,Bacterial Biotransformation
1,COC(=O)C(c1ccccc1)C1CCCCN1 (stereo not given) [METHYLPHENIDATE],Compound NOT metabolized
2,CN1CCN2c3ccccc3Cc3ccccc3C2C1 (stereo not given) [MIANSERIN],Compound NOT metabolized
3,CC#C[C@]1(O)CC[C@H]2[C@@H]3CCC4=CC(=O)CCC4=C3[C@@H](c3ccc(N(C)C)cc3)C[C@@]21C [MIFEPRISTONE],Compound NOT metabolized
4,CC(C)(C)NCC(O)COc1cccc2c1CC(O)C(O)C2 (stereo not given) [NADOLOL],Compound NOT metabolized
